Results reported in ChEMBL document CHEMBL1255447, “Efflux pumps, OprD porin, AmpC beta-lactamase, and multiresistance in Pseudomonas aeruginosa isolates from cystic fibrosis patients” (2010).
Values after ≈ are worked out from the molar mass of the structure shown.

Experiments:
Pseudomonas aeruginosa [1] = assay: Antimicrobial activity against Pseudomonas aeruginosa M1251 by Etest
Pseudomonas aeruginosa [2] = assay: Antimicrobial activity against Pseudomonas aeruginosa isolate 12142c from fibrosis patient by Etest; format: functional
Pseudomonas aeruginosa [3] = assay: Antimicrobial activity against Pseudomonas aeruginosa isolate 1726 from fibrosis patient by Etest; format: functional
Pseudomonas aeruginosa [4] = assay: Antimicrobial activity against Pseudomonas aeruginosa isolate 15110c from fibrosis patient by Etest; format: functional
Pseudomonas aeruginosa [5] = assay: Antimicrobial activity against Pseudomonas aeruginosa isolate 17145c from fibrosis patient by Etest; format: functional
Pseudomonas aeruginosa [6] = assay: Antimicrobial activity against Pseudomonas aeruginosa isolate 1681c from fibrosis patient by Etest; format: functional
Pseudomonas aeruginosa [7] = assay: Antimicrobial activity against Pseudomonas aeruginosa isolate 1333c from fibrosis patient by Etest; format: functional
Pseudomonas aeruginosa [8] = assay: Antimicrobial activity against Pseudomonas aeruginosa isolate 1530c from fibrosis patient by Etest; format: functional
Pseudomonas aeruginosa [9] = assay: Antimicrobial activity against Pseudomonas aeruginosa isolate 3149 from fibrosis patient by Etest; format: functional
Pseudomonas aeruginosa [10] = assay: Antimicrobial activity against Pseudomonas aeruginosa isolate 1352c from fibrosis patient by Etest; format: functional
Pseudomonas aeruginosa [11] = assay: Antimicrobial activity against Pseudomonas aeruginosa isolate 15107 from fibrosis patient by Etest; format: functional
Pseudomonas aeruginosa [12] = assay: microbe, parasite or virus in culture; conditions: isolate 13120
Description: Antimicrobial activity against Pseudomonas aeruginosa isolate 13120 from fibrosis patient by Etest

Pseudomonas aeruginosa [13] = assay: Antimicrobial activity against Pseudomonas aeruginosa isolate 1712c from fibrosis patient by Etest; format: functional
Pseudomonas aeruginosa [14] = assay: Antimicrobial activity against Pseudomonas aeruginosa isolate 1240 from fibrosis patient by Etest; format: functional
Pseudomonas aeruginosa [15] = assay: Antimicrobial activity against Pseudomonas aeruginosa isolate 1665 from fibrosis patient by Etest; format: functional
Pseudomonas aeruginosa [16] = assay: Antimicrobial activity against Pseudomonas aeruginosa isolate 12102 from fibrosis patient by Etest; format: functional
Pseudomonas aeruginosa [17] = assay: Antimicrobial activity against Pseudomonas aeruginosa isolate 14169c from fibrosis patient by Etest; format: functional
Pseudomonas aeruginosa [18] = assay: Antimicrobial activity against Pseudomonas aeruginosa isolate 1693c from fibrosis patient by Etest; format: functional
Pseudomonas aeruginosa [19] = assay: Antimicrobial activity against Pseudomonas aeruginosa Z799/61 by Etest; format: functional
Pseudomonas aeruginosa [20] = assay: Antimicrobial activity against Pseudomonas aeruginosa isolate 13167 from fibrosis patient by Etest; format: functional
Pseudomonas aeruginosa [21] = assay: Antimicrobial activity against Pseudomonas aeruginosa isolate 1248c from fibrosis patient by Etest; format: functional
Pseudomonas aeruginosa [22] = assay: Antimicrobial activity against Pseudomonas aeruginosa isolate 17112 from fibrosis patient by Etest; format: functional
Pseudomonas aeruginosa [23] = assay: microbe, parasite or virus in culture; conditions: 2779-con
Description: Antimicrobial activity against Pseudomonas aeruginosa 2779-con by Etest

Pseudomonas aeruginosa [24] = assay: Antimicrobial activity against Pseudomonas aeruginosa R70 Etest; format: functional
Pseudomonas aeruginosa [25] = assay: Antimicrobial activity against Pseudomonas aeruginosa isolate 1529c from fibrosis patient by Etest; format: functional
Pseudomonas aeruginosa [26] = assay: Antimicrobial activity against Pseudomonas aeruginosa 1405-con D2 by Etest; format: functional
Pseudomonas aeruginosa [27] = assay: Antimicrobial activity against Pseudomonas aeruginosa isolate 1247c from fibrosis patient by Etest; format: functional
Pseudomonas aeruginosa [28] = assay: Antimicrobial activity against Pseudomonas aeruginosa AHP Etest; format: functional
Pseudomonas aeruginosa [29] = assay: Antimicrobial activity against Pseudomonas aeruginosa isolate 1495c from fibrosis patient by Etest; format: functional
Pseudomonas aeruginosa [30] = assay: Antimicrobial activity against Pseudomonas aeruginosa isolate 1253 from fibrosis patient by Etest; format: functional
Pseudomonas aeruginosa [31] = assay: Antimicrobial activity against Pseudomonas aeruginosa isolate 16008 from fibrosis patient by Etest; format: functional
Pseudomonas aeruginosa [32] = assay: Antimicrobial activity against Pseudomonas aeruginosa R20 Etest; format: functional

Row | SMILES | MIC (Pseudomonas aeruginosa [1]) [µg/mL] | MIC (Pseudomonas aeruginosa [2]) [µg/mL] | MIC (Pseudomonas aeruginosa [3]) [µg/mL] | MIC (Pseudomonas aeruginosa [4]) [µg/mL] | MIC (Pseudomonas aeruginosa [5]) [µg/mL] | MIC (Pseudomonas aeruginosa [6]) [µg/mL] | MIC (Pseudomonas aeruginosa [7]) [µg/mL] | MIC (Pseudomonas aeruginosa [8]) [µg/mL] | MIC (Pseudomonas aeruginosa [9]) [µg/mL] | MIC (Pseudomonas aeruginosa [10]) [µg/mL] | MIC (Pseudomonas aeruginosa [11]) [µg/mL] | MIC (Pseudomonas aeruginosa [12]) [µg/mL] | MIC (Pseudomonas aeruginosa [13]) [µg/mL] | MIC (Pseudomonas aeruginosa [14]) [µg/mL] | MIC (Pseudomonas aeruginosa [15]) [µg/mL] | MIC (Pseudomonas aeruginosa [16]) [µg/mL] | MIC (Pseudomonas aeruginosa [17]) [µg/mL] | MIC (Pseudomonas aeruginosa [18]) [µg/mL] | MIC (Pseudomonas aeruginosa [19]) [µg/mL] | MIC (Pseudomonas aeruginosa [20]) [µg/mL] | further results
1 | CC(C)(O/N=C(\C(=O)N[C@@H]1C(=O)N2C(C(=O)[O-])=C(C[n+]3ccccc3)CS[C@H]12)c1csc(N)n1)C(=O)O [CEFTAZIDIME] | 4 (≈ 7.32 µM) | 256 (≈ 468 µM) | 2 (≈ 3.66 µM) | 256 (≈ 468 µM) | 64 (≈ 117 µM) | 256 (≈ 468 µM) | 128 (≈ 234 µM) | 4 (≈ 7.32 µM) | 8 (≈ 14.6 µM) | 64 (≈ 117 µM) | 8 (≈ 14.6 µM) | 4 (≈ 7.32 µM) | > 256 | 256 (≈ 468 µM) | 256 (≈ 468 µM) | 4 (≈ 7.32 µM) | 8 (≈ 14.6 µM) | 8 (≈ 14.6 µM) | ≤ 0.12 | 64 (≈ 117 µM) | MIC (Pseudomonas aeruginosa [21]): 256 µg/mL (≈ 468 µM); MIC (Pseudomonas aeruginosa [22]): 64 µg/mL (≈ 117 µM); MIC (Pseudomonas aeruginosa [23]): 32 µg/mL (≈ 58.5 µM); MIC (Pseudomonas aeruginosa [24]): 8 µg/mL (≈ 14.6 µM); MIC (Pseudomonas aeruginosa [25]): 4 µg/mL (≈ 7.32 µM); MIC (Pseudomonas aeruginosa [26]): 64 µg/mL (≈ 117 µM); MIC (Pseudomonas aeruginosa [27]): 8 µg/mL (≈ 14.6 µM); MIC (Pseudomonas aeruginosa [28]): 0.5 µg/mL (≈ 0.915 µM); MIC (Pseudomonas aeruginosa [29]): > 256 µg/mL; MIC (Pseudomonas aeruginosa [30]): 8 µg/mL (≈ 14.6 µM)
2 | NC[C@H]1O[C@H](O[C@H]2[C@H](O)[C@@H](O[C@H]3O[C@H](CO)[C@@H](O)[C@H](N)[C@H]3O)[C@H](N)C[C@@H]2N)[C@H](N)C[C@@H]1O [TOBRAMYCIN] | 0.25 (≈ 0.535 µM) | > 32 | 0.5 (≈ 1.07 µM) | > 32 | 16 (≈ 34.2 µM) | 16 (≈ 34.2 µM) | 8 (≈ 17.1 µM) | 4 (≈ 8.56 µM) | > 32 | 16 (≈ 34.2 µM) | 2 (≈ 4.28 µM) | 0.25 (≈ 0.535 µM) | 16 (≈ 34.2 µM) | 0.5 (≈ 1.07 µM) | 32 (≈ 68.4 µM) | 1 (≈ 2.14 µM) | 4 (≈ 8.56 µM) | 2 (≈ 4.28 µM) | 0.25 (≈ 0.535 µM) | 4 (≈ 8.56 µM) | MIC (Pseudomonas aeruginosa [31]): 4 µg/mL (≈ 8.56 µM); MIC (Pseudomonas aeruginosa [21]): 32 µg/mL (≈ 68.4 µM); MIC (Pseudomonas aeruginosa [22]): 0.5 µg/mL (≈ 1.07 µM); MIC (Pseudomonas aeruginosa [32]): 0.5 µg/mL (≈ 1.07 µM); MIC (Pseudomonas aeruginosa [23]): 1 µg/mL (≈ 2.14 µM); MIC (Pseudomonas aeruginosa [24]): 0.5 µg/mL (≈ 1.07 µM); MIC (Pseudomonas aeruginosa [25]): 16 µg/mL (≈ 34.2 µM); MIC (Pseudomonas aeruginosa [26]): 2 µg/mL (≈ 4.28 µM); MIC (Pseudomonas aeruginosa [27]): 8 µg/mL (≈ 17.1 µM); MIC (Pseudomonas aeruginosa [28]): ≤ 0.12 µg/mL; MIC (Pseudomonas aeruginosa [29]): 8 µg/mL (≈ 17.1 µM); MIC (Pseudomonas aeruginosa [30]): 4 µg/mL (≈ 8.56 µM)
3 | CC1(C)S[C@@H]2[C@H](NC(=O)C(C(=O)O)c3ccccc3)C(=O)N2[C@H]1C(=O)O (stereo partly drawn) [CARBENICILLIN] | 512 (≈ 1350 µM) | > 512 | ≤ 16 | > 512 | ≤ 16 | 512 (≈ 1350 µM) | > 512 | 64 (≈ 169 µM) | > 512 | 512 (≈ 1350 µM) | 128 (≈ 338 µM) | 256 (≈ 677 µM) | > 512 | 128 (≈ 338 µM) | > 512 | 256 (≈ 677 µM) | 512 (≈ 1350 µM) | 128 (≈ 338 µM) | ≤ 16 | > 512 | MIC (Pseudomonas aeruginosa [31]): ≤ 16 µg/mL; MIC (Pseudomonas aeruginosa [21]): > 512 µg/mL; MIC (Pseudomonas aeruginosa [22]): 512 µg/mL (≈ 1350 µM); MIC (Pseudomonas aeruginosa [32]): 64 µg/mL (≈ 169 µM); MIC (Pseudomonas aeruginosa [23]): 128 µg/mL (≈ 338 µM); MIC (Pseudomonas aeruginosa [24]): > 512 µg/mL; MIC (Pseudomonas aeruginosa [25]): 8 µg/mL (≈ 21.1 µM); MIC (Pseudomonas aeruginosa [26]): 512 µg/mL (≈ 1350 µM); MIC (Pseudomonas aeruginosa [27]): 128 µg/mL (≈ 338 µM); MIC (Pseudomonas aeruginosa [28]): 32 µg/mL (≈ 84.6 µM); MIC (Pseudomonas aeruginosa [29]): > 512 µg/mL; MIC (Pseudomonas aeruginosa [30]): 256 µg/mL (≈ 677 µM)
4 | C[C@@H](O)[C@H]1C(=O)N2C(C(=O)O)=C(SCCNC=N)C[C@H]12 [IMIPENEM ANHYDROUS] | 4 (≈ 13.4 µM) | 32 (≈ 107 µM) | 4 (≈ 13.4 µM) | > 32 | 32 (≈ 107 µM) | 32 (≈ 107 µM) | 32 (≈ 107 µM) | 8 (≈ 26.7 µM) | 32 (≈ 107 µM) | > 32 | 8 (≈ 26.7 µM) | 16 (≈ 53.4 µM) | 32 (≈ 107 µM) | 16 (≈ 53.4 µM) | 64 (≈ 214 µM) | 32 (≈ 107 µM) | 16 (≈ 53.4 µM) | 8 (≈ 26.7 µM) | 0.5 (≈ 1.67 µM) | 4 (≈ 13.4 µM) | MIC (Pseudomonas aeruginosa [31]): 64 µg/mL (≈ 214 µM); MIC (Pseudomonas aeruginosa [21]): 16 µg/mL (≈ 53.4 µM); MIC (Pseudomonas aeruginosa [22]): 128 µg/mL (≈ 428 µM); MIC (Pseudomonas aeruginosa [32]): 2 µg/mL (≈ 6.68 µM); MIC (Pseudomonas aeruginosa [23]): 2 µg/mL (≈ 6.68 µM); MIC (Pseudomonas aeruginosa [24]): 16 µg/mL (≈ 53.4 µM); MIC (Pseudomonas aeruginosa [25]): 16 µg/mL (≈ 53.4 µM); MIC (Pseudomonas aeruginosa [26]): 16 µg/mL (≈ 53.4 µM); MIC (Pseudomonas aeruginosa [27]): 16 µg/mL (≈ 53.4 µM); MIC (Pseudomonas aeruginosa [28]): 0.12 µg/mL (≈ 0.401 µM); MIC (Pseudomonas aeruginosa [29]): > 32 µg/mL; MIC (Pseudomonas aeruginosa [30]): > 32 µg/mL
5 | CO/N=C(\C(=O)N[C@@H]1C(=O)N2C(C(=O)O)=C(COC(C)=O)CS[C@H]12)c1csc(N)n1 [CEFOTAXIME] | 128 (≈ 281 µM) | > 256 | 16 (≈ 35.1 µM) | > 256 | 128 (≈ 281 µM) | > 256 | > 256 | 32 (≈ 70.3 µM) | 64 (≈ 141 µM) | > 256 | 256 (≈ 562 µM) | 128 (≈ 281 µM) | > 256 | 256 (≈ 562 µM) | > 256 | 64 (≈ 141 µM) | 128 (≈ 281 µM) | 128 (≈ 281 µM) | 0.5 (≈ 1.1 µM) | > 256 | MIC (Pseudomonas aeruginosa [31]): 64 µg/mL (≈ 141 µM); MIC (Pseudomonas aeruginosa [21]): > 256 µg/mL; MIC (Pseudomonas aeruginosa [22]): > 256 µg/mL; MIC (Pseudomonas aeruginosa [32]): 4 µg/mL (≈ 8.78 µM); MIC (Pseudomonas aeruginosa [23]): > 256 µg/mL; MIC (Pseudomonas aeruginosa [24]): 256 µg/mL (≈ 562 µM); MIC (Pseudomonas aeruginosa [25]): 32 µg/mL (≈ 70.3 µM); MIC (Pseudomonas aeruginosa [26]): > 256 µg/mL; MIC (Pseudomonas aeruginosa [27]): 128 µg/mL (≈ 281 µM); MIC (Pseudomonas aeruginosa [28]): 4 µg/mL (≈ 8.78 µM); MIC (Pseudomonas aeruginosa [29]): > 256 µg/mL; MIC (Pseudomonas aeruginosa [30]): 128 µg/mL (≈ 281 µM)
